Reference: patent US10159655B2, “Agent for inhibiting odor of pyrazine derivatives” (Kao Corporation, priority 2012, dated 2018)

Target: T1, olfactory receptor OR5K1 (Homo sapiens, UniProt Q8NHB7)
T1 construct: expressed in transfected cells; host or cells: HEK293
T1 sequence (Q8NHB7 1-308): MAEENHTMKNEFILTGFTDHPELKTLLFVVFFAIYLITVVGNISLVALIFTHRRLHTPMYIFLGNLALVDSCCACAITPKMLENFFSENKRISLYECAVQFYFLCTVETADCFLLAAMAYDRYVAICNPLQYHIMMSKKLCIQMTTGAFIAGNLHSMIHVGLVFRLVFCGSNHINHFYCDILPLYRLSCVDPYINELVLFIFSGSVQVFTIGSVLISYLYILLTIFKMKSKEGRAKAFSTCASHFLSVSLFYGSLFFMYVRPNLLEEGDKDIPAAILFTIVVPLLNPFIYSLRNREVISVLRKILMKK
Test: Luciferase reporter gene assay: response of olfactory receptor OR5K1 expressed in HEK293 cells to pyrazine compounds
Format: cell-based
Settings: for dependency of the response of OR5K1 on the concentration of pyrazine compounds: 0, 3, 10, 30, 100, 300 and 1000 μM, HEK293 cells with RTP1S variant, FIG. 2
Source text: Human olfactory receptors were cloned based on sequence information registered in GenBank by PCR using human genomic DNA female (G1521: Promega Corporation) as a template. Each gene amplified by PCR was inserted into a pENTR vector (Invitrogen Inc.) in accordance with the manual and was recombined into the NotI and AscI site located downstream of a Flag-Rho tag sequence in a pME18S vector using the NotI and AscI site present in the pENTR vector.
An RTP1S variant gene (SEQ ID NO: 3) encoding an RTP1S variant (SEQ ID NO: 4) was inserted into the EcoRI and XhoI site of a pME18S vector.
HEK293 cells expressing 373 types of human olfactory receptors were produced. A reaction solution having a composition shown in Table 1 was prepared and left to stand in a clean bench for 15 min and then was dispensed in each well of a 96-well plate (Becton, Dickinson and Company). Subsequently, HEK293 cells (100 μL, 3×10^5 cells/cm^2) were seeded in each well and cultured in an incubator at 37° C. and 5% CO2 for 24 hr.
An olfactory receptor expressed in HEK293 cells couples with endogenous Gas in the cells to activate adenylate cyclase and thereby increases the amount of intracellular cAMP. In this study, the response of a pyrazine derivative was measured by luciferase reporter gene assay which monitors an increase in amount of intracellular cAMP as the luminescence value derived from a firefly luciferase gene (fluc2P-CRE-hygro). A Renilla luciferase gene was fused downstream of a CMV promoter (hRluc-CMV) and was also introduced to HEK293 cells as an internal standard to correct errors in transgenic efficiency and number of cells.
The culture medium was removed from the culture produced in the above 3), and 75 μL of a solution prepared with a CD293 medium (Invitrogen Inc.) so as to contain a pyrazine derivative (1 mM, 2,6-dimethylpyrazine) was added thereto. The cells were cultured in a CO2 incubator for 2.5 hr to sufficiently express the luciferase gene in the cells. The luciferase activity was measured with a Dual-Glo™ luciferase assay system (Promega Corporation) in accordance with the operating manual of the system. The fold increases were calculated by dividing the luminescence value derived from firefly luciferase induced by stimulation with a pyrazine derivative at each concentration by the luminescence value in cells not stimulated with the pyrazine derivative and were used as an index of response strength.
Olfactory receptor OR5K1 (SEQ ID NO: 2) was expressed in HEK293 cells together with an RTP1S variant (SEQ ID NO: 4) by the same procedure as in Example 1, and the dependency of the response on the concentration (0, 3, 10, 30, 100, 300, and 1000 μM) of various pyrazine compounds was investigated. The pyrazine compounds used in this Example were pyrazine and pyrazine derivatives selected from the group consisting of 2-methylpyrazine, 2,3-dimethylpyrazine, 2,5-dimethylpyrazine, 2,3,5-trimethylpyrazine, 2,3,5,6-tetramethylpyrazine, and 2-ethylpyrazine.

| dependency of the response of OR5K1 on the concentration of pyrazine compounds | response of olfactory receptor to 2,6-dimethylpyrazine (fold increase of luciferase luminescence) (1 mM, 373 types of human olfactory receptors screened in HEK293 cells, FIG. 1) | SMILES |
| --- | --- | --- |
| dose-dependently responded | – | Cc1nc(C)c(C)nc1C [2,3,5,6-tetramethylpyrazine] |
| dose-dependently responded | – | Cc1cnc(C)c(C)n1 [2,3,5-trimethylpyrazine] |
| dose-dependently responded | – | Cc1cnc(C)cn1 [2,5-dimethylpyrazine] |
| dose-dependently responded | responded | Cc1cncc(C)n1 [2,6-dimethylpyrazine] |
| dose-dependently responded | – | Cc1cnccn1 [2-methylpyrazine] |
| did not respond | – | c1cnccn1 [pyrazine] |

| SMILES | dependency of the response of OR5K1 on the concentration of pyrazine compounds | response of olfactory receptor to 2,6-dimethylpyrazine (fold increase of luciferase luminescence) (1 mM, 373 types of human olfactory receptors screened in HEK293 cells, FIG. 1) |
| --- | --- | --- |
| Cc1nccnc1C [2,3-dimethylpyrazine] | dose-dependently responded | – |
| CCc1cnccn1 [2-ethylpyrazine] | dose-dependently responded | – |
